# Test results from patent US20250026759A1 (Merck Sharp & Dohme LLC, priority 2023, published 2025).
# System: PBMCs infected with VSV-G pseudotyped HIV virus (VSV-G/pNLG1-P2A-ΔEnv)
# Assay: cells
# Assay type: cell-based, human
# Conditions: Homo sapiens, PBMC, read-out: TACK EC50
row,SMILES,EC50 [µM]
1,"CC(F)(F)[C@@]1(C#CC2CC2)NC(=O)Nc2cc(Cn3cc(CCO)cn3)c(F)cc21 [Example 70, (S)-4-(cyclopropylethynyl)-4-(1,1-difluoroethyl)-6-fluoro-7-((4-(2-hydroxyethyl)-1H-pyrazol-1-yl)methyl)-3,4-dihydroquinazolin-2(1H)-one]",0.0507
2,"Cc1nnn(Cc2cc3c(cc2F)[C@@](C#CC2CC2)(C(F)(F)F)NC(=O)N3)n1 [Example 118, (S)-4-(cyclopropylethynyl)-6-fluoro-7-((5-methyl-2H-tetrazol-2-yl)methyl)-4-(trifluoromethyl)-3,4-dihydroquinazolin-2(1H)-one]",0.0364
3,"CC(O)c1ccn(Cc2cc3c(cc2F)[C@@](C#CC2CC2)(C(C)(F)F)NC(=O)N3)n1 (single isomer, unassigned) [Example 72, (S)-4-(cyclopropylethynyl)-4-(1,1-difluoroethyl)-6-fluoro-7-((3-((S or R)-1-hydroxyethyl)-1H-pyrazol-1-yl)methyl)-3,4-dihydroquinazolin-2(1H)-one]",0.0462
4,"CC(F)(F)[C@@]1(C#CC2CC2)NC(=O)Nc2cc(Cn3cc(F)cn3)c(F)cc21 [Example 15, (S)-4-(cyclopropylethynyl)-4-(1,1-difluoroethyl)-6-fluoro-7-((4-fluoro-1H-pyrazol-1-yl)methyl)-3,4-dihydroquinazolin-2(1H)-one]",0.0273
5,"Cc1n[nH]c(=O)n1Cc1cc2c(cc1F)[C@@](C#CC1CC1)(C(F)(F)F)NC(=O)N2 [Example 33, (S)-4-(cyclopropylethynyl)-6-fluoro-7-((3-methyl-5-oxo-1,5-dihydro-4H-1,2,4-triazol-4-yl)methyl)-4-(trifluoromethyl)-3,4-dihydroquinazolin-2(1H)-one]",0.0236
6,"Cn1ccnc1C(=O)NCc1cc2c(cc1F)[C@@](C#CC1CC1)(C(C)(F)F)NC(=O)N2 [Example 82, (S)-N-((4-(cyclopropylethynyl)-4-(1,1-difluoroethyl)-6-fluoro-2-oxo-1,2,3,4-tetrahydroquinazolin-7-yl)methyl)-1-methyl-1H-imidazole-2-carboxamide]",0.153
7,"Cc1cnn(Cc2cc3c(cc2F)[C@@](C#CC2CC2)(C(C)(F)F)NC(=O)N3)c1 [Example 11, (S)-4-(cyclopropylethynyl)-4-(1,1-difluoroethyl)-6-fluoro-7-((4-methyl-1H-pyrazol-1-yl)methyl)-3,4-dihydroquinazolin-2(1H)-one]",0.0466
8,"Cc1cn(Cc2cc3c(cc2F)[C@@](C#CC2CC2)(C(C)(F)F)NC(=O)N3)nc1N [Example 45, (S)-7-((3-amino-4-methyl-1H-pyrazol-1-yl)methyl)-4-(cyclopropylethynyl)-4-(1,1-difluoroethyl)-6-fluoro-3,4-dihydroquinazolin-2(1H)-one]",0.0131
9,"COCc1nn(Cc2cc3c(cc2F)[C@@](C#CC2CC2)(C(C)(F)F)NC(=O)N3)cc1Cl [Example 66, (S)-7-((4-chloro-3-(methoxymethyl)-1H-pyrazol-1-yl)methyl)-4-(cyclopropylethynyl)-4-(1,1-difluoroethyl)-6-fluoro-3,4-dihydroquinazolin-2(1H)-one]",0.0389
10,"CN(C)c1ccn(Cc2cc3c(cc2F)[C@@](C#CC2CC2)(C(C)(F)F)NC(=O)N3)n1 [Example 76, (S)-4-(cyclopropylethynyl)-4-(1,1-difluoroethyl)-7-((3-(dimethylamino)-1H-pyrazol-1-yl)methyl)-6-fluoro-3,4-dihydroquinazolin-2(1H)-one]",0.0604
11,"CC(F)(F)[C@@]1(C#CC2CC2)NC(=O)Nc2cc(Cn3ccc(-c4cc[nH]n4)n3)c(F)cc21 [Example 52, (S)-7-(1H,1′H-[3,3′-bipyrazol]-1-ylmethyl)-4-(cyclopropylethynyl)-4-(1,1-difluoroethyl)-6-fluoro-3,4-dihydroquinazolin-2(1H)-one]",0.0283
12,"O=C1Nc2cc(Cn3cc4c(n3)CCOC4)c(F)cc2[C@@](C#CC2CC2)(C(F)(F)F)N1 (single isomer, unassigned) [Example 23]",0.0212
13,"Cc1nn(Cc2cc3c(cc2F)[C@@](C#CC2CC2)(C(C)(F)F)NC(=O)N3)c(=O)n1C [Example 128, (S)-4-(cyclopropylethynyl)-4-(1,1-difluoroethyl)-7-((3,4-dimethyl-5-oxo-4,5-dihydro-1H-1,2,4-triazol-1-yl)methyl)-6-fluoro-3,4-dihydroquinazolin-2(1H)-one]",0.115
14,"COc1ncn(Cc2cc3c(cc2F)[C@@](C#CC2CC2)(C(C)(F)F)NC(=O)N3)n1 [Example 1, (S)-4-(cyclopropylethynyl)-4-(1,1-difluoroethyl)-6-fluoro-7-((3-methoxy-1H-1,2,4-triazol-1-yl)methyl)-3,4-dihydroquinazolin-2(1H)-one]",0.0146
15,"Cn1ccc(-c2ccn(Cc3cc4c(cc3F)[C@@](C#CC3CC3)(C(C)(F)F)NC(=O)N4)n2)n1 [Example 53, (S)-4-(cyclopropylethynyl)-4-(1,1-difluoroethyl)-6-fluoro-7-((1′-methyl-1H,1′H-[3,3′-bipyrazol]-1-yl)methyl)-3,4-dihydroquinazolin-2(1H)-one]",0.0283
16,"CN(Cc1cc2c(cc1F)[C@@](C#CC1CC1)(C(C)(F)F)NC(=O)N2)C(=O)c1ncc[nH]1 [Example 81, (S)-N-((4-(cyclopropylethynyl)-4-(1,1-difluoroethyl)-6-fluoro-2-oxo-1,2,3,4-tetrahydroquinazolin-7-yl)methyl)-N-methyl-1H-imidazole-2-carboxamide]",0.0121
17,"O=C1Nc2cc(Cn3c(=O)[nH]c4ncccc43)c(F)cc2[C@@](C#CC2CC2)(C(F)(F)F)N1 (single isomer, unassigned) [Example 8]",0.0387
18,"NC(=O)c1nccn1Cc1cc2c(cc1F)[C@@](C#CC1CC1)(C(F)(F)C1CC1)NC(=O)N2 [Example 62, (S)-1-((4-(cyclopropyldifluoromethyl)-4-(cyclopropylethynyl)-6-fluoro-2-oxo-1,2,3,4-tetrahydroquinazolin-7-yl)methyl)-1H-imidazole-2-carboxamide]",0.0319
19,"COCc1ccn(Cc2cc3c(cc2F)[C@@](C#CC2CC2)(C(C)(F)F)N(C)C(=O)N3)n1 [Example 112, (S)-4-(cyclopropylethynyl)-4-(1,1-difluoroethyl)-6-fluoro-7-((3-(methoxymethyl)-1H-pyrazol-1-yl)methyl)-3-methyl-3,4-dihydroquinazolin-2(1H)-one]",0.0181
20,"CC(F)(F)[C@@]1(C#CC2CC2)NC(=O)Nc2cc(Cn3nc(N)cc3Cl)c(F)cc21 [Example 60, (S)-7-((3-amino-5-chloro-1H-pyrazol-1-yl)methyl)-4-(cyclopropylethynyl)-4-(1,1-difluoroethyl)-6-fluoro-3,4-dihydroquinazolin-2(1H)-one]",0.0289
21,"Cc1cc[nH]c1C(=O)NCc1cc2c(cc1F)[C@@](C#CC1CC1)(C(F)(F)F)NC(=O)N2 [Example 86, (S)-N-((4-(cyclopropylethynyl)-6-fluoro-2-oxo-4-(trifluoromethyl)-1,2,3,4-tetrahydroquinazolin-7-yl)methyl)-3-methyl-1H-pyrrole-2-carboxamide]",0.0157
22,"CC(F)(F)[C@@]1(C#CC2CC2)NC(=O)Nc2cc(Cn3cnc(CO)n3)c(F)cc21 [Example 4, (S)-4-(cyclopropylethynyl)-4-(1,1-difluoroethyl)-6-fluoro-7-((3-(hydroxymethyl)-1H-1,2,4-triazol-1-yl)methyl)-3,4-dihydroquinazolin-2(1H)-one]",0.0677
23,"O=C1Nc2cc(Cn3c(Cl)n[nH]c3=O)c(F)cc2[C@@](C#CC2CC2)(C(F)(F)F)N1 [Example 36, (S)-7-((3-chloro-5-oxo-1,5-dihydro-4H-1,2,4-triazol-4-yl)methyl)-4-(cyclopropylethynyl)-6-fluoro-4-(trifluoromethyl)-3,4-dihydroquinazolin-2(1H)-one]",0.0133
24,"O=C1Nc2cc(CNC(=O)c3ncco3)c(F)cc2[C@@](C#CC2CC2)(C(F)(F)F)N1 [Example 83, (S)-N-((4-(cyclopropylethynyl)-6-fluoro-2-oxo-4-(trifluoromethyl)-1,2,3,4-tetrahydroquinazolin-7-yl)methyl)oxazole-2-carboxamide]",0.158
25,"O=C1Nc2cc(CNC(=O)c3nccs3)c(F)cc2[C@@](C#CC2CC2)(C(F)(F)F)N1 [Example 89, (S)-N-((4-(cyclopropylethynyl)-6-fluoro-2-oxo-4-(trifluoromethyl)-1,2,3,4-tetrahydroquinazolin-7-yl)methyl)thiazole-2-carboxamide]",0.095
26,"Cc1cn(Cc2cc3c(cc2F)[C@@](C#CC2CC2)(C(C)(F)F)NC(=O)N3)nc1CO [Example 68, (S)-4-(cyclopropylethynyl)-4-(1,1-difluoroethyl)-6-fluoro-7-((3-(hydroxymethyl)-4-methyl-1H-pyrazol-1-yl)methyl)-3,4-dihydroquinazolin-2(1H)-one]",0.031
27,"O=C1Nc2cc(Cn3cc4cccnc4n3)c(F)cc2[C@@](C#CC2CC2)(C(F)(F)F)N1 [Example 28, (S)-7-((2H-pyrazolo[3,4-b]pyridin-2-yl)methyl)-4-(cyclopropylethynyl)-6-fluoro-4-(trifluoromethyl)-3,4-dihydroquinazolin-2(1H)-one]",0.104
28,"CC(F)(F)[C@@]1(C#CC2CC2)NC(=O)Nc2cc(Cn3ccc(Br)n3)c(F)cc21 [Example 19, (S)-7-((3-bromo-1H-pyrazol-1-yl)methyl)-4-(cyclopropylethynyl)-4-(1,1-difluoroethyl)-6-fluoro-3,4-dihydroquinazolin-2(1H)-one]",0.0262
29,"CC(F)(F)[C@@]1(C#CC2CC2)NC(=O)Nc2cc(CNC(=O)c3[nH]cnc3Cl)c(F)cc21 [Example 77, (S)-4-chloro-N-((4-(cyclopropylethynyl)-4-(1,1-difluoroethyl)-6-fluoro-2-oxo-1,2,3,4-tetrahydroquinazolin-7-yl)methyl)-1H-imidazole-5-carboxamide]",0.0087
30,"CC(F)(F)[C@@]1(C#CC2CC2)NC(=O)Nc2cc(Cn3ccc4c3C(=O)NC4)c(F)cc21 [Example 40, (S)-4-(cyclopropylethynyl)-4-(1,1-difluoroethyl)-6-fluoro-7-((6-oxo-5,6-dihydropyrrolo[3,4-b]pyrrol-1(4H)-yl)methyl)-3,4-dihydroquinazolin-2(1H)-one]",0.0059
